Like-named read-outs stand apart in the source and are kept apart here.
Tests used:
[1] = Decomposition kinetics (HNO release) monitored by UV-Vis spectroscopy; format: physicochemical; conditions: for half-life: pH 7.4, decomposition half-life, pH 7.4, 37° C., compounds 5, 7-10 not first-order, approximate half-lives; for kO2/kAr: ratio of oxygen-dependent to argon decomposition rate, 0.1 M PBS pH 7.4, 37° C.
Procedure: The decomposition rates of the compounds may be determined by UV-Vis spectroscopy.
The decomposition of compounds 1-4 and 6 from Example 1 was monitored by UV-Vis spectroscopy in 0.1 M PBS buffer at pH 7.4 and 37° C. The spectral behavior was isosbestic and the time course fit well to a single exponential. […] Decomposition kinetics for compounds 5, 7-10 of Example 1 are not first-order and thus only approximate half-lives are reported. Compounds with more than one number in a single column in the table below indicates the results of two experiments for the same compound.

[2] = tested on: myocardial ischemia/reperfusion injury; conditions: anesthetized rabbits, given during ischemia and 5 minutes prior to reperfusion; cited from earlier work
[3] = tested on: rat renal tissue; conditions: rat kidney, given during ischemia and 5 minutes before reperfusion; cited from earlier work
[4] = tested on: ischemia/reperfusion injury; conditions: pre-ischemic administration; cited from earlier work
[5] = aerated 0.1 M PBS buffer, aerated 0.1 M PBS buffer, read-out: t1/2 (air)
[6] = argon-saturated 0.1 M PBS buffer, argon-saturated 0.1 M PBS buffer, read-out: t1/2 (Ar)

Row | half-life [1, 5] [min] | half-life [1, 6] [min] | kO2/kAr [1] | melting point | SMILES | effect on myocardial ischemia/reperfusion injury [2] | neutrophil infiltration into renal tissue [3] | effect on ischemia/reperfusion injury [4]
1 | 2.67 | 17.5 | 5.82 | 127 to 129 °C | O=S(=O)(NO)c1ccccc1F [Compound 1, 2-Fluoro-N-hydroxybenzenesulfonamide] |  |  | 
2 | 3.3 |  |  |  | O=[N+]([O-])c1ccc(S(=O)(=O)NO)cc1 [Compound 10, 4-Nitro-N-hydroxybenzenesulfonamide] |  |  | 
3 |  |  |  |  | [Na+].[Na+].[O-][N+]([O-])=NO [AS, sodium dioxotrinitrate] | increased myocardial ischemia/reperfusion injury | contributed to neutrophil infiltration into the tissue | prevent or reduce ischemia/reperfusion injury
4 | 1.75 | 3.61 | 1.06 | 152 to 155 °C (dec.) | O=S(=O)(NO)c1ccccc1Cl [Compound 2, 2-Chloro-N-hydroxybenzenesulfonamide] |  |  | 
5 | 10 | 72.1 |  |  | O=S(=O)(NO)c1ccc(F)cc1 [Compound 7, 4-Fluoro-N-hydroxybenzenesulfonamide] |  |  | 
6 | 4 | 17.8 |  | 151 to 155 °C (dec.) | N#Cc1ccc(S(=O)(=O)NO)cc1 [Compound 9, 4-Cyano-N-hydroxybenzenesulfonamide] |  |  | 
7 |  |  | 2.52 |  | O=S(=O)(NO)c1cc(Cl)sc1Cl [Compound 6, 2,5-Dichlorothiophene-3-sulfohydroxamic acid] |  |  | 
8 | 7 | 33 |  | 117 to 121 °C (dec.) | O=S(=O)(NO)c1ccc(C(F)(F)F)cc1 [Compound 8, 4-(Trifluoromethyl)-N-hydroxybenzenesulfonamide] |  |  | 
9 | 0.68 | 1.05 | 0.55 | 156 to 159 °C (dec.) | O=S(=O)(NO)c1ccccc1Br [Compound 3, 2-Bromo-N-hydroxybenzenesulfonamide] |  |  | 
10 | 0.55 | 0.96 | 0.75 | 124 to 127 °C (dec.) | O=S(=O)(NO)c1ccccc1C(F)(F)F [Compound 4, 2-(Trifluoromethyl)-N-hydroxybenzenesulfonamide] |  |  | 
11 |  |  |  |  | CC(C)N[N+]([O-])=N[O-].[Na+] [isopropylamine/NO] |  |  | prevent or reduce ischemia/reperfusion injury

Reference: patent publication US11306056B2 (Cardioxyl Pharmaceuticals, Inc., priority 2006, dated 2022)
